Source: PMC4850295, “Using a Genetically Encoded Sensor to Identify Inhibitors of Toxoplasma gondii Ca^2+ Signaling” (The Journal of Biological Chemistry, 2016)
Values joined by “and” are separate entries in the source; they are usually repeats but may differ in a detail not shown here. Equal entries are not always repeated.

Test system: T1, GCaMP5-expressing T. gondii
T1 construct: whole extracellular parasites expressing GCaMP5 Ca2+ sensor
Design: species or system GCaMP5-expressing Toxoplasma gondii, extracellular; GCaMP5 fluorescence (cytosolic Ca2+) after 100 uM zaprinast in compound-pretreated extracellular parasites, background-subtracted, relative to zaprinast alone
Details: 100 uM zaprinast stimulation, 10 min pretreatment, mean of two replicates, 0.23 h, 10 µM
Description: GCaMP5-expressing parasites were suspended in Ringer's solution at 4 × 10^7 parasites/ml, and 50 μl of parasites were applied to each well of a 96-well plate (Costar, catalog no. 3631). […] Parasites were then treated with 100 μM zaprinast or 0.1% DMSO as a vehicle control and incubated at 37 °C with 5% CO2 for an additional 4 min before measuring fluorescence with excitation and emission wavelengths of 485 and 525 nm, respectively, on a SpectraMax M3 (Molecular Devices). Basal fluorescence, measured from untreated parasites, was subtracted from all values, and results were expressed as -fold change from parasites treated only with zaprinast. Z′ factors were determined from (i) parasites treated with zaprinast versus untreated parasites and (ii) parasites treated with a final concentration of 1 μM Cpd2 or a vehicle control followed by zaprinast, using the formula, Z′ = 1 − 3(σp + σn)/(|μp − μn|), where σp and σn indicate S.D. values of positive and negative controls, and μp and μn indicate the means of positive and negative controls, respectively. […] We predicted that the zaprinast response measured in GCaMP5-expressing parasites could form the basis for a phenotypic screen. Such a screen would benefit from the known importance of Ca^2+ signaling in parasite biology along with the reported success rate of cell-based phenotypic assays. We designed a screen wherein extracellular GCaMP5-expressing parasites were pretreated with compounds for 10 min before stimulation with zaprinast, and parasite fluorescence was measured 4 min later. We expected that compounds that interfered with the zaprinast response would reduce fluorescence. We calculated a Z′-factor for this screen to determine its dynamic range and suitability to high throughput screening. To do so, we compared zaprinast-treated parasites to untreated parasites or those pretreated with the PKG inhibitor Compound 2 (Cpd2) ([55]). […] We obtained the compound libraries published kinase inhibitor sets PKIS1 ([57]) and PKIS2 (unpublished), from GlaxoSmithKline and applied our phenotypic screen to the 823 ATP mimetics represented in these collections (Fig. 2B and supplemental Table S1). The compounds were screened at a single 10 μM dose with two biological replicates.

Structure (SMILES) | fold change in fluorescence relative to zaprinast alone
Fc1ccc(-c2nc3n(c2-c2ccncc2)CCS3)cc1 [GI98581X] | 0.7657 and 1.237
CCn1c(-c2nonc2N)nc2c(-c3ccccc3)ncc(OCCCN)c21 [GSK260205A] | 0.1513

Same assay, conditions: 100 uM zaprinast stimulation; 10 min pretreatment; mean of two replicates; 0.23 h

Structure (SMILES) | fold change in fluorescence relative to zaprinast alone
Nc1ncnc2c1ncn2-c1ccc(Cl)cc1 [AH2635] | 1.022
c1ccc(-c2cnc3nccnn23)cc1 [AH20685XX] | 1.296
COc1cc2ncnc(Nc3cccc(Br)c3)c2cc1OC [GI230329A] | 1.268
COc1ccc2ncnc(Nc3ccc(OCc4ccccc4)cc3)c2c1 [GI261520A] | 0.7394
COc1cc2ncnc(Nc3ccc(OCc4ccccc4Br)c(Cl)c3)c2cc1OC [GI261590A] | 1.09
COc1cc2nccc(Nc3ccc(Oc4ccccc4)cc3)c2cc1OC [GI261656A] | 0.5416
O=C1Nc2ccccc2C1=C1CCc2cc(O)ccc21 [GR105659X] | 1.22
c1ccc(Cc2nc3ccc(Nc4ncnc5ccccc45)cc3[nH]2)cc1 [GR269666A] | 1.257
Clc1cc(Cl)cc(Nc2ccnc(Nc3cc(Cl)cc(Cl)c3)n2)c1 [GSK175726A] | 0.5192
CC1=C(C(=O)Nc2ccc3[nH]ncc3c2)C(c2ccc(F)cc2)NC(=O)N1 (centres unmarked) [GSK180736A] | 0.8811
CN(C)C(=O)O[C@H]1CN[C@H](C#Cc2cc3ncnc(Nc4ccc(OCc5cccc(F)c5)c(Cl)c4)c3s2)C1 [GSK182497A] | 1.183
Cc1ccc(-c2nc(Nc3ccncc3)c3ccccc3n2)s1 [GSK189015A] | 0.1154
CCNC(=O)O[C@H]1CN[C@H](C#Cc2cc3ncnc(Nc4ccc(OCc5cccc(F)c5)c(Cl)c4)c3s2)C1 [GSK192082A] | 1.213
O=C(Nc1cccc(-c2nn3ncccc3c2-c2ccnc(Nc3ccccc3)n2)c1)c1c(F)cccc1F [GSK198271A] | 1.278
O=C(O[C@H]1CN[C@H](C#Cc2cc3ncnc(Nc4ccc5c(cnn5Cc5ccccc5)c4)c3s2)C1)N1CCOCC1 [GSK200398A] | 1.169
COc1cc2ncn(-c3cc(OCC4CCCCC4)c(C(N)=O)s3)c2cc1OC [GSK204559A] | 1.336
COc1cc2ncn(-c3cc(OCCc4ccccc4)c(C(N)=O)s3)c2cc1OC [GSK204925A] | 0.9795
COc1cc2c(Nc3cccc(NC(=O)c4ccccc4)c3)ncnc2cc1OCCCN1CCOCC1 [GSK223810A] | 1.471
COc1cc2ncn(-c3cc(O[C@@H](C)c4ccccc4Cl)c(C(N)=O)s3)c2cc1OC [GSK237700A] | 1.147
COc1cc2ncn(-c3cc(O[C@H](C)c4ccccc4Cl)c(C(N)=O)s3)c2cc1OC [GSK237701A] | 0.7907
CN(C)C(=O)O[C@@H]1CN[C@@H](C#Cc2cc3ncnc(Nc4ccc(OCc5cccc(F)c5)c(Cl)c4)c3s2)C1 [GSK238063A] | 1.133
O=C(O[C@H]1CN[C@H](C#Cc2cc3ncnc(Nc4ccc(Cc5ccccc5)cc4)c3s2)C1)N1CCOCC1 [GSK238583A] | 1.249
Cc1cccc(-c2nc(C)cc(Nc3ccncc3)n2)n1 [GSK257997A] | 0.832
CCn1c(-c2nonc2N)nc2cnc(Oc3cccc(NC(=O)c4ccc(OCCN5CCOCC5)cc4)c3)cc21 [GSK269962B] | 1.303
CC1=C(C(=O)Nc2ccc3[nH]ncc3c2)C(c2ccc3ccccc3c2)CC(=O)N1 (centres unmarked) [GSK270822A] | 1.167
O=C(Nc1cccc(-c2nn3ccccc3c2-c2ccnc(Nc3cccc(C(F)(F)F)c3)n2)c1)c1c(F)cccc1F [GSK292658A] | 1.154
CC1=C(C(=O)Nc2ccc3[nH]ncc3c2)C(c2ccc(Cl)c(Cl)c2)CC(=O)N1 (centres unmarked) [GSK299115A] | 1.214

Structure (SMILES) | fold change in fluorescence relative to zaprinast alone
O=C(Nc1cccc(-c2nn3ncccc3c2-c2ccnc(Nc3cccc(C(F)(F)F)c3)n2)c1)c1c(F)cccc1F [GSK299495A] | 1.22
CS(=O)(=O)CCNCc1cc(-c2cc3c(Nc4ccc(OCc5cccc(F)c5)c(Cl)c4)ncnc3s2)cs1 [GSK300014A] | 1.033
NC(=O)c1cc(-c2ccccc2)cc2c(C3CCNCC3)c[nH]c12 [GSK301362A] | 1.06
O=S(=O)(c1cccc(F)c1)c1ccc(Nc2ncnc3cc(Br)sc23)cc1Cl [GSK306886A] | 1.114
O=C(Nc1cccc(-c2nn3ncccc3c2-c2ccnc(Nc3cccnc3)n2)c1)c1c(F)cccc1F [GSK312879A] | 1.048
COc1cc2ncn(-c3cc(OCc4cccs4)c(C(N)=O)s3)c2cc1OC [GSK312948A] | 1.205
COc1ccc2ncn(-c3cc(O[C@H](C)c4ccccc4C(F)(F)F)c(C(N)=O)s3)c2c1 [GSK317315A] | 0.7483
CC1=C(C(=O)Nc2ccc3[nH]ncc3c2)C(c2ccc(F)cc2)N=C(c2ccc(C(F)(F)F)nc2)N1 (centres unmarked) [GSK317354A] | 1.324
COc1cc2ncn(-c3cc(OCc4ccccc4S(C)(=O)=O)c(C#N)s3)c2cc1OC [GSK319347A] | 1.184
COc1cc(Nc2nccc(-c3c(-c4cccc(NC(=O)c5c(F)cccc5F)c4)nn4ccccc34)n2)cc(OC)c1OC [GSK323521A] | 1.412
CS(=O)(=O)Cc1ccc(Nc2nccc(-c3c(-c4cccc(NC(=O)c5c(F)cccc5F)c4)nn4ccccc34)n2)cc1 [GSK323543A] | 1.565
CCS(=O)(=O)c1ccc(OC)c(Nc2nccc(-c3c(-c4cccc(NC(=O)c5c(F)cccc5F)c4)nn4ncccc34)n2)c1 [GSK326180A] | 1.656
COc1cc(Nc2nccc(-c3c(-c4cccc(NC(=O)c5c(F)cccc5F)c4)nn4ncccc34)n2)cc(OC)c1OC [GSK327238A] | 1.28
NS(=O)(=O)CCc1cccc(Nc2nccc(-c3c(-c4cccc(NC(=O)c5c(F)cccc5F)c4)nn4ccccc34)n2)c1 [GSK336735A] | 1.201
O=C(Nc1cccc(-c2nn3ccccc3c2-c2ccnc(Nc3cccc(F)c3)n2)c1)c1c(F)ccc(F)c1Cl [GSK357952A] | 1.061
Cc1ccc(F)c(C(=O)Nc2cccc(-c3nn4ccccc4c3-c3ccnc(Nc4cccc(F)c4)n3)c2)c1F [GSK361061A] | 0.9289
COc1cccc(OC)c1C(=O)Nc1cccc(-c2nn3ccccc3c2-c2ccnc(Nc3cccc(F)c3)n2)c1 [GSK361065A] | 0.9782
COc1ccccc1CNC(=O)c1cc(C(=O)c2ccccc2C)c[nH]1 [GSK364507A] | 1.353
NS(=O)(=O)c1cccc(N=Cc2c(O)[nH]c3ccc(S(=O)(=O)Cc4c(Cl)cccc4Cl)cc23)c1 [GSK398099A] | 1.056
CC1=C(C(=O)Nc2cc3cn[nH]c3cc2F)C(c2ccc(C(F)(F)F)cc2)CC(=O)N1 (centres unmarked) [GSK429286A] | 1.046
COc1cc2ncn(-c3cc(OCc4sccc4Cl)c(C(N)=O)s3)c2cc1OC [GSK448459A] | 1.439
CC1=C(C(=O)Nc2ccc3[nH]nc(C)c3c2)C(c2ccc(C(F)(F)F)cc2)CC(=O)N1 (centres unmarked) [GSK466314A] | 1.189
CC1=C(C(=O)Nc2cc(Cl)c3[nH]ncc3c2)C(c2ccc(C(F)(F)F)cc2)CC(=O)N1 (centres unmarked) [GSK466317A] | 1.01
C[C@@H](Oc1cc(-n2cnc3cc(-c4ccncc4)ccc32)sc1C(N)=O)c1ccccc1Cl [GSK479719A] | 1.296
C[C@@H](Oc1cc(-n2cnc3ccc(-c4ccncc4)cc32)sc1C(N)=O)c1ccccc1Cl [GSK483724A] | 1.04
CCn1c(-c2nonc2N)nc2c(C#CC(C)(C)O)ncc(OCCCCN)c21 [GSK507274A] | 1.063
Cc1[nH]nc2ccc(-c3cc(OC[C@@H](N)Cc4ccccc4)cnc3-c3ccoc3)cc12 [GSK507358A] | 0.7404
